Data: patent US20190343828A1, “CAMPTOTHECIN PEPTIDE CONJUGATES” (SEATTLE GENETICS, INC., priority 2018, published 2019)

Key:
[1] = system: B-lymphocyte cancer cells (U266); assay: In vitro cytotoxicity, CellTiter-Glo 96 h, U266; conditions: Homo sapiens, U-266, read-out: Cytotoxic potency as free drug, IC50, U266
[2] = system: renal carcinoma cells (786-O); assay: In vitro cytotoxicity, CellTiter-Glo 96 h, 786-O; conditions: Homo sapiens, 786-0, read-out: Cytotoxic potency (IC50 class), 786-O
Experimental: (§1) In vitro potency was assessed on multiple cancer cell lines. All cell lines were authenticated by STR profiling at IDEXX Bioresearch and cultured for no more than 2 months after resuscitation. Cells cultured in log-phase growth were seeded for 24 hours in 96-well plates containing 150 μl RPMI 1640 supplemented with 20% FBS. Serial dilutions of antibody-drug conjugates in cell culture media were prepared at 4× working concentrations, and 50 μl of each dilution was added to the 96-well plates. Following addition of test articles, cells were incubated with test articles for 4 days at 37° C. After 96 hours, growth inhibition was assessed by CellTiter-Glo® (Promega, Madison, Wis.) and luminescence was measured on a plate reader.
(§2) Cell viability was determined by CellTiter-Glo staining after 96 h exposure to ADC.

[3] = system: pancreatic cancer cells (BxPC3); assay: In vitro cytotoxicity, CellTiter-Glo 96 h, BxPC3; conditions: Homo sapiens, BXPC-3, read-out: Cytotoxic potency (IC50 class), BxPC3
Experimental: as §1, §2

[4] = system: acute promyelocytic leukemia cells (HL-60); assay: In vitro cytotoxicity, CellTiter-Glo 96 h, HL-60; conditions: Homo sapiens, HL-60, read-out: Cytotoxic potency (IC50 class), HL-60
Experimental: as §1
(§3) Cell viability was determined by CellTiter-Glo staining after 96 h exposure to ADC. […] Ag1 is an antibody targeting a ubiquitous and readily internalizable antigen on cancer cells, Ag2 is cAC10 antibody targeting CD30(+) cancer cells, Ag3 is h1F6 antibody targeting CD70(+) cancer cells, Ag4 is hMEM102 antibody targeting CD48(+) cancer cells, Ag5 is h20F3 antibody targeting NTB-A expressing cancer cells, and h00 is a non-binding control antibody.

[5] = system: multiple myeloma cells (MM.1R); assay: In vitro cytotoxicity, CellTiter-Glo 96 h, MM.1R; conditions: read-out: Cytotoxic potency (IC50 class), MM.1R
Experimental: as §1, §3

[6] = system: Burkitt's lymphoma cells (Ramos); assay: In vitro cytotoxicity, CellTiter-Glo 96 h, Ramos; conditions: Homo sapiens, read-out: Cytotoxic potency as free drug, IC50, Ramos
[7] = system: Hodgkin's lymphoma cells (L540cy); assay: In vitro cytotoxicity, CellTiter-Glo 96 h, L540cy; conditions: read-out: Cytotoxic potency (IC50 class), L540cy
Experimental: as §1, §2

[8] = system: acute myeloid leukemia cells (MOLM13); assay: In vitro cytotoxicity, CellTiter-Glo 96 h, MOLM13; conditions: Homo sapiens, MOLM-13, read-out: Cytotoxic potency as free drug, IC50, MOLM13
Experimental: as §1, §2

[9] = system: multiple drug resistant acute promyelocytic leukemia cells (HL-60/RV); assay: In vitro cytotoxicity, CellTiter-Glo 96 h, HL60/RV; conditions: Homo sapiens, HL-60, read-out: Cytotoxic potency (IC50 class), HL60/RV
Experimental: as §1, §2

[10] = system: melanoma cells (SK-MEL-5); assay: In vitro cytotoxicity, CellTiter-Glo 96 h, SK-MEL-5; conditions: Homo sapiens, SK-MEL-5, read-out: Cytotoxic potency as free drug, IC50, SK-MEL-5
Experimental: as §1, §3

[11] = system: B-lymphocyte cancer cells (SU-DHL-4); assay: In vitro cytotoxicity, CellTiter-Glo 96 h, SU-DHL-4; conditions: Homo sapiens, SU-DHL-4, read-out: Cytotoxic potency as free drug, IC50, SU-DHL-4
Experimental: as §1, §3

Row | SMILES | IC50 [1] [nM] | IC50 [2] [nM] | IC50 [3] [nM] | IC50 [4] [nM] | IC50 [5] [nM] | IC50 [6] [nM] | IC50 [7] [nM] | IC50 [8] [nM] | IC50 [9] [nM] | IC50 [10] [nM] | IC50 [11] [nM]
1 | CCNCc1c2c(nc3cc4c(cc13)OCO4)-c1cc3c(c(=O)n1C2)COC(=O)[C@]3(O)CC [Compound 5a] | 1 to 10 | 1 to 10 | 1 to 10 | 10 to 100 | 1 to 10 | 1 to 10 | 1 to 10 | 1 to 10 | 1 to 10 | 1 to 10 | 1 to 10
2 | CC[C@@]1(O)C(=O)OCc2c1cc1n(c2=O)Cc2c-1nc1cc3c(cc1c2CN(C)C1CCCC[C@H]1NC)OCO3 (stereo partly drawn) [Compound 5aa] | 10 to 100 | 10 to 100 | 100 to 1000 | 100 to 1000 | 10 to 100 | 1 to 10 | 10 to 100 | 10 to 100 | 100 to 1000 | 10 to 100 | 10 to 100
3 | CC[C@@]1(O)C(=O)OCc2c1cc1n(c2=O)Cc2c-1nc1cc3c(cc1c2CNc1ccccc1)OCO3 [Compound 5b] | 1 to 10 | 1 to 10 | 1 to 10 | 10 to 100 | 1 to 10 | 0.1 to 1 | 0.1 to 1 | 10 to 100 | 1 to 10 | 1 to 10 | 0.1 to 1
4 | CC[C@@]1(O)C(=O)OCc2c1cc1n(c2=O)Cc2c-1nc1cc3c(cc1c2CNC(C)C)OCO3 [Compound 5c] | 1 to 10 | 1 to 10 | 1 to 10 | 1 to 10 | 1 to 10 | 0.1 to 1 | 1 to 10 | 1 to 10 | 1 to 10 | 1 to 10 | 1 to 10
5 | CC[C@@]1(O)C(=O)OCc2c1cc1n(c2=O)Cc2c-1nc1cc3c(cc1c2CNC1CCCCC1)OCO3 [Compound 5d] | 1 to 10 | 1 to 10 | 1 to 10 | 10 to 100 | 1 to 10 | 1 to 10 | 1 to 10 | 1 to 10 | 1 to 10 | 1 to 10 | 1 to 10
6 | CC[C@@]1(O)C(=O)OCc2c1cc1n(c2=O)Cc2c-1nc1cc3c(cc1c2CNCc1ccc(N)cc1)OCO3 [Compound 5e] | 10 to 100 | 10 to 100 | 10 to 100 | 10 to 100 | 1 to 10 | 1 to 10 | 1 to 10 | 1 to 10 | 100 to 1000 | 10 to 100 | 1 to 10
7 | CC[C@@]1(O)C(=O)OCc2c1cc1n(c2=O)Cc2c-1nc1cc3c(cc1c2CNCCCCO)OCO3 [Compound 5f] | 1 to 10 | 1 to 10 | 10 to 100 | 10 to 100 | 1 to 10 | 1 to 10 | 1 to 10 | 1 to 10 | 100 to 1000 | 1 to 10 | 1 to 10
8 | CC[C@@]1(O)C(=O)OCc2c1cc1n(c2=O)Cc2c-1nc1cc3c(cc1c2CN1CCOCC1)OCO3 [Compound 5g] | 1 to 10 | 1 to 10 | 1 to 10 | 1 to 10 | 1 to 10 | 0.1 to 1 | 1 to 10 | 1 to 10 | 1 to 10 | 1 to 10 | 1 to 10
9 | CC[C@@]1(O)C(=O)OCc2c1cc1n(c2=O)Cc2c-1nc1cc3c(cc1c2CN1CCN(C)CC1)OCO3 [Compound 5h] | 10 to 100 | 1 to 10 | 10 to 100 | 10 to 100 | 1 to 10 | 1 to 10 | 1 to 10 | 1 to 10 | 10 to 100 | 10 to 100 | 1 to 10
10 | CC[C@@]1(O)C(=O)OCc2c1cc1n(c2=O)Cc2c-1nc1cc3c(cc1c2CNCC(C)C)OCO3 [Compound 5i] | 1 to 10 | 1 to 10 | 1 to 10 | 10 to 100 | 1 to 10 | 1 to 10 | 1 to 10 | 1 to 10 | 1 to 10 | 1 to 10 | 1 to 10
11 | CC[C@@]1(O)C(=O)OCc2c1cc1n(c2=O)Cc2c-1nc1cc3c(cc1c2CNCc1ccccc1)OCO3 [Compound 5j] | 1 to 10 | 1 to 10 | 1 to 10 | 10 to 100 | 1 to 10 | 1 to 10 | 1 to 10 | 1 to 10 | 1 to 10 | 1 to 10 | 1 to 10
12 | CCCCNCc1c2c(nc3cc4c(cc13)OCO4)-c1cc3c(c(=O)n1C2)COC(=O)[C@]3(O)CC [Compound 5k] | 1 to 10 | 1 to 10 | 1 to 10 | 10 to 100 | 1 to 10 | 1 to 10 | 1 to 10 | 1 to 10 | 1 to 10 | 1 to 10 | 1 to 10
13 | CC[C@@]1(O)C(=O)OCc2c1cc1n(c2=O)Cc2c-1nc1cc3c(cc1c2CNCc1ccc(OC)cc1)OCO3 [Compound 5l] | 10 to 100 | 10 to 100 | 10 to 100 | 10 to 100 | 1 to 10 | 1 to 10 | 10 to 100 | 1 to 10 | 10 to 100 | 10 to 100 | 1 to 10
14 | CC[C@@]1(O)C(=O)OCc2c1cc1n(c2=O)Cc2c-1nc1cc3c(cc1c2CNCCC(c1ccccc1)c1ccccc1)OCO3 [Compound 5o] | 10 to 100 | 10 to 100 | 10 to 100 | 100 to 1000 | 10 to 100 | 1 to 10 | 1 to 10 | 10 to 100 | 10 to 100 | 10 to 100 | 10 to 100
15 | CC[C@@]1(O)C(=O)OCc2c1cc1n(c2=O)Cc2c-1nc1cc3c(cc1c2CN(CCO)CCO)OCO3 [Compound 5p] | 10 to 100 | 10 to 100 | 10 to 100 | 100 to 1000 | 1 to 10 | 1 to 10 | 10 to 100 | 10 to 100 | 100 to 1000 | 10 to 100 | 10 to 100
16 | CC[C@@]1(O)C(=O)OCc2c1cc1n(c2=O)Cc2c-1nc1cc3c(cc1c2CN(CCN)CCO)OCO3 [Compound 5q] | 10 to 100 | 10 to 100 | 100 to 1000 | 100 to 1000 | 10 to 100 | 10 to 100 | 10 to 100 | 10 to 100 | 100 to 1000 | 100 to 1000 | 10 to 100
17 | CC[C@@]1(O)C(=O)OCc2c1cc1n(c2=O)Cc2c-1nc1cc3c(cc1c2CNc1ccc(F)cc1)OCO3 [Compound 5r] | 1 to 10 | 1 to 10 | 1 to 10 | 10 to 100 | 1 to 10 | 1 to 10 | 1 to 10 | 10 to 100 | 10 to 100 | 1 to 10 | 1 to 10
18 | CC[C@@]1(O)C(=O)OCc2c1cc1n(c2=O)Cc2c-1nc1cc3c(cc1c2CNC12CC4CC(CC(C4)C1)C2)OCO3 [Compound 5s] | 10 to 100 | 10 to 100 | 10 to 100 | 100 to 1000 | 10 to 100 | 10 to 100 | 10 to 100 | 10 to 100 | 10 to 100 | 10 to 100 | 10 to 100
19 | CC[C@@]1(O)C(=O)OCc2c1cc1n(c2=O)Cc2c-1nc1cc3c(cc1c2CN(C)CCN(C)C)OCO3 [Compound 5t] | 10 to 100 | 1 to 10 | 10 to 100 | 100 to 1000 | 1 to 10 | 1 to 10 | 1 to 10 | 10 to 100 | 10 to 100 | 10 to 100 | 1 to 10
20 | CC[C@@]1(O)C(=O)OCc2c1cc1n(c2=O)Cc2c-1nc1cc3c(cc1c2CNCC1CCNCC1)OCO3 [Compound 5u] | 10 to 100 | 10 to 100 | 10 to 100 | 100 to 1000 | 10 to 100 | 1 to 10 | 10 to 100 | 10 to 100 | 100 to 1000 | 10 to 100 | 10 to 100
21 | CC[C@@]1(O)C(=O)OCc2c1cc1n(c2=O)Cc2c-1nc1cc3c(cc1c2CNCCN(C)CCO)OCO3 [Compound 5w] | 10 to 100 | 10 to 100 | 10 to 100 | 100 to 1000 | 10 to 100 | 1 to 10 | 10 to 100 | 10 to 100 | 10 to 100 | 10 to 100 | 10 to 100
